Laboratory results reported in paper PMC10001324, “Differential Effects of Nonsteroidal Anti-Inflammatory Drugs in an In Vitro Model of Human Leaky Gut” (Cells, 2023).
Values after ≈ are worked out from the molar mass of the structure shown. Where two headings read alike, the source gives them in different places.

Columns and labels:
[1] = system: TNF-α; details: Caco-2, EtOH exposure 6% for 24 h; control 10.8 ± 1.3 pg/mL
[2] = system: IL-8; details: Caco-2, EtOH exposure 6% for 24 h; control 82.4 ± 0.44 pg/mL
[3] = system: COX-1; details: human blood, cited from earlier work
[4] = Log P / LogD7.4 by pH-metric titration in octanol (SiriusT3); type: physicochemical; details: for logD: pH 7.4; for logP: SiriusT3, octanol
Procedure: (§1) The major physicochemical properties of the drugs were determined using the SiriusT3 apparatus (Sirius Analytical Instruments Ltd., East Sussex, UK) equipped with an Ag/AgCl double junction reference pH electrode, a Sirius D-PAS spectrometer, and a turbidity sensing device. The pH electrode was calibrated titrimetrically in the pH range 1.8–12.2 as previously described. The pKas were defined by the potentiometric method by pH-metric titration. The powder (around 0.5 mg) was diluted in 1.5 mL of ISA water and the titration was analyzed in triplicate in the pH range 2.0–12.0.

[5] = system: Caco-2 cells; experiment: Transepithelial electrical resistance (TEER), EtOH-stressed Caco-2; type: cell-based, human; details: Caco-2 20 DIV, 6% EtOH 24 h then 0.25, 0.5, 1 mM for 72 h
[6] = physchem; details: water
Procedure: as §1

[7] = system: COX-2; details: human blood, cited from earlier work
[8] = system: Caco-2 cells; experiment: DCFDA cellular ROS assay, Caco-2; type: cell-based, human; details: compared to EtOH challenge alone; Caco-2, 1 mM for 72 h
[9] = system: IKBα; experiment: IKBα protein levels by western blotting, Caco-2; type: cell-based, human; details: Caco-2, 6% EtOH 24 h then 1 mM for 72 h
[10] = system: Caco-2 cells; experiment: Morphological analysis of the intestinal barrier (ZO-1 immunofluorescence, phalloidin staining); type: cell-based, human; details: Caco-2, 6% EtOH 24 h then 1 mM for 72 h
Procedure: Cells were then fixed with 3.7% paraformaldehyde (Sigma, USA) in PBS for 15 min at room temperature and then permeabilized with 0.1% Triton X-100 (Sigma, USA) in PBS for 5 min. After further washes with PBS, phalloidin 1000X (ab176753, Abcam, UK) was diluted to 1X in 1% BSA in PBS, and the cells were incubated for 90 min at room temperature (according to the manufacturer’s instructions). Finally, coverslips were mounted on microscope slides with Vectashield Mounting Medium H2000 with DAPI and cells were observed using a Leica SP5 confocal microscope. For each condition, n = 3, 5 fields/slide were analyzed. A representative picture is shown.
Cells were then treated with 6% EtOH (24 h) and then with 1 mM NSAIDs (72 h). Cells were fixed in 3.7% paraformaldehyde in PBS for 15 min at room temperature, rinsed with PBS, and permeabilized with 0.1% Triton X-100 in PBS for 5 min. After further washes with PBS, cells were incubated for 30 min with BSA 4% in PBS and then incubated overnight at 4 °C with the primary antibody zonulin-1 (ZO-1) (33-910, Thermo Scientific, MA, USA rabbit anti-human, dilution 1:100). […] Finally, coverslips were mounted on microscope slides with Vectashield Mounting Medium with DAPI and cells were observed using a Leica SP5 confocal microscope.

[11] = system: IKBα/4-HNE adducts; experiment: Immunoprecipitation for IKBα, IKBα/4-HNE adducts, Caco-2; type: cell-based, human; details: Caco-2, EtOH then 1 mM for 72 h
Procedure: The columns were incubated overnight at 4 °C. […] Values were given as RU.

[12] = system: Glutathione-S-transferase (GST); details: effect on EtOH-induced decrease; Caco-2, 1 mM for 72 h
[13] = system: Caco-2 cells; details: effect on EtOH-induced increase; Caco-2, 1 mM for 72 h
Procedure: OxyBlot protein oxidation detection kits (S7150, Millipore Company, Burlington, MA, USA) were used according to the manufacturer’s instructions. Briefly, cells were plated (seeding density 3 × 10^5 cells/cm^2) in a complete medium in a T75 flask and cultured for 20 days post-confluence. After 20 days, cells were exposed for 24 h to EtOH (6%) and for 72 h to NSAIDs (1 mM). OxyBlot assay was then performed as previously reported.

[14] = system: 4-HNE; experiment: 4-HNE levels by WB, Caco-2; type: cell-based, human; details: Caco-2, 6% EtOH 24 h then 1 mM for 72 h
[15] = system: NFkB; experiment: NFkB translocation in LPS-activated RAW 264.7 macrophages; type: cell-based, murine; details: 1 mM for 24 h
Procedure: The murine macrophage cell line RAW 264.7 (ATCC TIB-71) was purchased from ATCC, and cells were cultured as indicated by the manufacturer. For the experiment, cells were seeded 10,000/cm^2 for 24 h, starved for 4 h (w/o serum), and activated with lipopolysaccharides (LPS 10 ng/mL for 24 h; Sigma Aldrich, St. Louis, MO, USA). […] RAW 264.7 cells were seeded at 10,000 cells/cm^2 and activated with LPS. […] For both Caco-2 and RAW 264.7 cells, the procedure of extraction of different components was performed as previously reported. The protein fraction extracts were separated on a 10% SDS–polyacrylamide gel and electroblotted onto PVDF. Nonspecific binding sites were blocked by EBB for 5 min. Membranes were then incubated overnight at 4 °C with anti-NFκB and anti-PPARγ. As secondary antibodies, peroxidase-conjugated anti-rabbit, and anti-mouse were used. Bands were detected using Alliance 4.7 UVITEC (Cambridge, UK) and analyzed by ImageJ software. The relative densities of the immunoreactive bands were normalized to anti-Actin or anti-laminin using ImageJ software. Values were given as RU.

[16] = system: COX; details: cited from earlier work
[17] = Caco-2 permeability assay (Papp, Ap-Bl); type: in vitro ADME; details: human, Caco-2, apical to basolateral
Procedure: Papp is the apparent permeability of a compound across a membrane. For drug transport studies, cells were seeded at a density of 3 × 10^5 cells/cm^2 on permeable support with 0.4 µm Transparent PET Membrane in complete medium, cultured and treated as described above.
Drug transport across Caco-2 monolayers was studied in the Ap–Bl direction, fresh drug and provided to the apical side (donor compartment), and the fresh vehicle was provided to the basolateral side (receiver compartment). For each solution, aliquots of 500 μL were collected immediately after the addition of compounds to the cells (the “time zero”), and after appropriate dilution, an HPLC analysis was performed. At the end of the experiment, after 120 min of incubation, 500 μL of the donor chamber solution was diluted and an HPLC analysis was performed.

Structure (SMILES)	IC50 ([3]; ref 23) [nM]	IC50 ([3]; ref 24) [nM]	logP ([4]; octanol/ISA water)	intestinal barrier integrity (ZO-1 and phalloidin staining) [10]	IKBα/4-HNE adduct formation [11]	NFkB translocation [15]	Papp at 120 min ([17]; Caco-2, K) [×10⁻⁶ cm/s]	Papp at 120 min ([17]; Caco-2, KLS) [×10⁻⁶ cm/s]	other results
CCO [EtOH, Ethanol]	–	–	–	–	–	–	–	–	Secreted TNF-α levels [1]: 20.9 ± 0.7 pg/mL; Secreted IL-8 levels [2]: 283.9 ± 4.1 pg/mL
CC(C)Cc1ccc(C(C)C(=O)O)cc1 (stereo not drawn) [Ibuprofen]	[…]	[…]	3.91 ± 0.01	–	–	–	–	–	logD ([4]; octanol/ISA water): 0.96; TEER [5]: partial but significant protective activity; solubility [6]: 49 µg/mL (≈ 238 µM)
CC(C(=O)O)c1cccc(C(=O)c2ccccc2)c1 (stereo not drawn) [Ketoprofen, ketoprofen]	47	110	3.05 ± 0.01	did not show the ability to protect Caco-2 cells	reduced the formation of the adducts	–	–	–	IC50 ([7]; ref 23): 2900 nM; IC50 ([7]; ref 24): 880 nM; DCFDA fluorescence intensity (cellular ROS) [8]: more substantial; IKBα protein levels [9]: counteracted the EtOH-induced IKBα decrease; logD [4]: 0.12
NCCCC[C@H](N)C(=O)O [Lys, L-lysine]	–	–	–	did not show the ability to protect Caco-2 cells	not	–	–	–	GST activity [12]: not observed; levels of oxidized proteins (OxyBlot) [13]: did not exhibit direct antioxidant effects; 4-HNE levels [14]: not
C[C@@H](C(=O)O)c1cccc(C(=O)c2ccccc2)c1 [R enantiomer, R-Ketoprofen]	–	–	–	–	–	inhibited NFkB translocation to the same extent as KLS	0.579 ± 0.052	1.19 ± 0.044	potency as a COX inhibitor [16]: several logs less potent than the S enantiomer
C[C@H](C(=O)O)c1cccc(C(=O)c2ccccc2)c1 [S enantiomer, (S)-ketoprofen]	–	–	–	–	–	not	0.576 ± 0.031	1.19 ± 0.026	–
